From patent publication US20100016242A1, “MYOSIN LIGHT CHAIN KINASE INHIBITORS AND METHODS OF USE” (THE UNIVERSITY OF CHICAGO, priority 2004, published 2010)

Experiments:
[1] = stability in rat intestinal fluid (LC-MS); assay type: in vitro ADME
Method: (§1) Peptides administered in vivo are susceptible to protease cleavage, particularly those administered to the intestine. PIK, D-PIK, D-PIK(reversed) and D-PIK(int.) were each incubated with rat intestinal fluid and also with Caco-2 intestinal epithelial cell extracts, which contain a mixture brush border and cytosolic proteases. Luminal intestinal secretions were obtained by flushing isolated rat intestines (duodenum to ileum) with 10 ml of 20 mM of N-2-Hydroxyethylpiperazine-N′-2-ethanesulfonic acid (HEPES) buffer, pH 7.4. Discharged contents were centrifuged to remove solids and the supernatant filtered through a 0.20 μm filter prior to determining total protein content. Confluent Caco-2 cells were rinsed with PBS, lifted by brief trypsin treatment into a small volume of Dulbecco's modified Eagles's medium (DMEM) and washed twice with phosphate buffered saline (PBS). The final cell pellet was re-suspended in a small volume of lysis buffer (50 mM Tris-HCL, 2 mM EDTA, 20% glycerol at pH 7.4) and sonicated on ice. Protein concentrations of isolated intestinal fluid and lysed Caco-2 cell extracts were determined using the Bio-Rad Protein Assay. Peptide inhibitors of MLCK (1 mg/ml) in PBS were mixed with 0.1 mg protein of intestinal secretions or Caco-2 cell lysate on ice and incubated for at 4° C. and 37° C., respectively. At selected times, 100 μl aliquots were withdrawn and mixed with an equal volume of 0.5% TFA (in 50/50 water/acetonitrile) to terminate enzymatic reactions. Samples were centrifuged and supernatants analyzed by LC-MS analysis to determine the cleavage pattern of PIK.
(§2) Residual peptide content was assessed by liquid chromatography-mass spectrometry (Tiller et al., Anal Bioanal Chem 2003; 377:788-802) and positive ion electrospray ionization.
The peptides listed in Table 2 (0.1 mg) were incubated with rat intestinal fluid (0.2 mg) at 37° C. for 0.5 min to 6 hours.

[2] = stability in Caco-2 intestinal epithelial cell extracts (LC-MS); assay type: in vitro ADME; conditions: Caco-2 cell extracts
Method: as §1, with “The final cell pellet was re-suspended in a small volume of lysis buffer (50 mM Tris-HCL, 2 mM EDTA, 20% glycerol at pH 7.4) and sonicated on ice.” left out, “Peptide inhibitors of MLCK (1 mg/ml) in PBS were mixed with 0.1 mg protein of intestinal secretions or Caco-2 cell lysate on ice and incubated for at 4° C. and 37° C., respectively. At selected times, 100 μl aliquots were withdrawn and mixed with an equal volume of 0.5% TFA (in 50/50 water/acetonitrile) to terminate enzymatic reactions.” left out
as §2

half-life ([1]; 0.1 mg peptide, rat intestinal fluid (0.2 mg), 37° C.): 12 s
hydrolysis on extended incubation ([1]; rat intestinal fluid, extended incubations): total hydrolysis
Substance: Ac-RKKYKYRRK-NH2 [PIK, Arg-Lys-Lys-Tyr-Lys-Tyr-Arg-Arg-Lys]
initial cleavage pattern ([1]; rat intestinal fluid): peptide bonds at the C-terminal sides of K and R residues of PIK were initially cleaved
cleavage pattern [2]: cleaved PIK across the central palindromic sequence
